According to PMC10789121, “Amine Basicity of Quinoline ATP Synthase Inhibitors Drives Antibacterial Activity against Pseudomonas aeruginosa” (ACS Medicinal Chemistry Letters, 2023):
In brackets after ≈: the same amount, converted by molar mass. Several values for one entry are separate records, joined by “and”; a condition that tells them apart may be missing. Equal entries are not always repeated. Where two headings read alike, the source gives them in different places.

How the values were obtained:
[1] = tested on: BAA 2110 (MDRPA clinical isolate); test: Antimicrobial susceptibility, broth microdilution MIC; format: cell-based, Pseudomonas aeruginosa; conditions: for MIC: Pseudomonas aeruginosa
Procedure: (§1) Pseudomonas aeruginosa (ATCC 9027), Drug-Resistant Pseudomonas aeruginosa from ATCC Panel MP-23 (BAA-2108, BAA-2109, BAA-2110), and Pseudomonas aeruginosa efflux knockout GKCW120 (PD6)14 provided by Zgurskaya and co-workers at the University of Oklahoma.
(§2) Antimicrobial Susceptibility Assay Procedure. Susceptibility testing was performed in biological triplicate, using the broth microdilution method as outlined by the Clinical and Laboratory Standards Institute. Briefly, minimum inhibitory concentrations (MIC) determinations were carried out in 96-well microtiter plates with 2-fold serial dilutions of the compounds from 0 […]
(§3) Briefly, to each well 1 µL of compound in DMSO, 89 µL of TSB, and 10 µL of bacterial inoculum, grown from frozen stock in 10 mL of TSB […]
(§4) for 4-6 hours, were added. […]
(§5) on a Biotek Synergy HTX Multi-mode plate reader. Data was processed by background subtracting the media absorbance and then normalizing the data to full bacterial growth with only vehicle.
(§6) MIC is defined as the lowest concentration of antibiotic or antibiotic/adjuvant combination that achieves ≥ 85% growth inhibition, which corresponds to no visible growth. […]

[2] = tested on: BAA 2108 (MDRPA clinical isolate); test: as above; format: cell-based, Pseudomonas aeruginosa; conditions: for MIC: Pseudomonas aeruginosa
Procedure: as §1, §2, §3, §4, §5, §6

[3] = tested on: BAA 2109 (MDRPA clinical isolate); test: as above; format: cell-based, Pseudomonas aeruginosa; conditions: for MIC: Pseudomonas aeruginosa
Procedure: as §1, §2, §3, §4, §5, §6

[4] = tested on: PΔ6 (efflux knockout strain of PA); test: as above; format: cell-based; conditions: Pseudomonas aeruginosa, read-out: MIC PΔ6
Procedure: as §1, §2, §3, §4, §5, §6

PA 9027 [5] = test: as above; format: cell-based; conditions: Pseudomonas aeruginosa, read-out: MIC PA 9027
Procedure: as §1, §2, §3, §4, §5, §6

[6] = design: method as in earlier work; conditions: value of the C2 functional group; cited from earlier work
[7] = tested on: EC electron transport chain; test: Electron transport activity (ACMA fluorescence quenching) in E. coli DK8 pASH20 inverted membrane vesicles; format: biochemical, Escherichia coli
Procedure: (§7) Determination of electron transport activity. As previously described,11 inverted membrane vesicles from PA 9027 or E. coli DK8 pASH20 were added to HMK buffer containing 0.3 µg/mL 9-amino-6-chloro-2-methoxyacridine (ACMA) and 0-64 µg/mL test compound in DMSO. After measurement of baseline ACMA fluorescence for 60 s, redox-driven H+ pumping was initiated by addition of NADH to 0.8 mM, and fluorescence quenching was monitored for 120 s before addition of nigericin to 0.5 µg/mL. Relative activity is reported as the minimum fluorescence value normalized to the maximum fluorescence value following addition of nigericin.

PA ATP synthase [8] = molecular target: T1, PA ATP synthase (Pseudomonas aeruginosa, UniProt Q9HT15); test: Inhibition of NADH-driven PA ATP synthesis activity in DK8/pASH20 inverted membrane vesicles (end-point luciferin/luciferase assay); format: biochemical; conditions: PA ATP synthase IC50 (absolute), NADH-driven ATP synthesis, EC DK8/pASH20 inverted membrane vesicles
T1 construct: a whole operon plasmid that expresses; made in house; host or cells: Escherichia coli DK8 (K-12 strain lacking the unc operon) transformed with pASH20; used as inverted membrane vesicles, not purified

[9] = tested on: PA electron transport chain; test: Electron transport activity (ACMA fluorescence quenching) in PA 9027 inverted membrane vesicles; format: biochemical, Pseudomonas aeruginosa; conditions: for PA ETC IC50: PA 9027 inverted membrane vesicles
Source text: The assay for PA ATP synthase activity in EC DK8/pASH20 membrane vesicles requires a functional EC ETC, so potent inhibition of the EC ETC by any compound would interfere with the determination of its IC50 for PA ATP synthase. […] Furthermore, potent inhibition of PA ETC could be an alternative mechanism of action for the antibacterial activity of the current series.
as §7

[10] = tested on: PΔ6 (efflux knockout strain of PA); design: method as in PMID 37922420; conditions: cited from earlier work
PA ATP synthase [11] = molecular target: T1, PA ATP synthase; design: method as in PMID 37922420; conditions: previously determined; cited from earlier work
PA 9027 [12] = tested on: PA 9027; design: method as in PMID 37922420; conditions: cited from earlier work
[13] = tested on: BAA 2109 (MDRPA clinical isolate); design: method as in PMID 37922420; conditions: cited from earlier work
[14] = tested on: BAA 2110 (MDRPA clinical isolate); design: method as in PMID 37922420; conditions: cited from earlier work
[15] = tested on: PA electron transport chain; design: method as in PMID 37922420; conditions: previously determined; cited from earlier work
[16] = tested on: BAA 2108 (MDRPA clinical isolate); design: method as in PMID 37922420; conditions: cited from earlier work
[17] = BAA2110, >85% reduction in growth at OD 590 nm, n = 3, read-out: MIC BAA 2110
[18] = BAA2108, >85% reduction in growth at OD 590 nm, n = 3, read-out: MIC BAA 2108
[19] = BAA2109, >85% reduction in growth at OD 590 nm, n = 3, read-out: MIC BAA 2109
[20] = BAA2110, read-out: MIC BAA 2110
[21] = BAA2108, read-out: MIC BAA 2108
[22] = BAA2109, read-out: MIC BAA 2109
[23] = >85% reduction in growth at OD 590 nm, n = 3

Compound	MIC [1, 17] [µg/mL]	MIC [2, 18] [µg/mL]	MIC [3, 19] [µg/mL]	MIC [4] [µg/mL]	MIC (PA 9027 [5]) [µg/mL]	approximate pKa (NH+) of C2 side chain conjugate acid [6]	% EC ETC Inhibition at 4 µg/mL [7] [%]	IC50 (PA ATP synthase [8])	PA ETC IC50 [9]	% PA ETC Inhibition at 32 µg/mL [9] [%]	also measured
CNC(C)C1CCC(N)C(OC2C(N)CC(N)C(OC3OCC(C)(O)C(NC)C3O)C2O)O1 (centres unmarked) [gentamicin, reference compound]	4 to 8	16	2	> 4	2 to 4						
CCN1CCC(CCNCc2cc3ccccc3nc2SCc2ccccc2)CC1 [Compound 14]				16	> 128	above 6	16	2.38 µM	26 [26] μg/mL		MIC [1, 20]: 16 µg/mL; MIC [2, 21]: 32 µg/mL; MIC [3, 22]: 64 µg/mL
CSc1nc2ccccc2cc1CNCc1ccc(CN(C)C)cc1 [Compound 1]											MIC PΔ6 [10]: 64 to 128 µg/mL; PA ATP synthase IC50 (PA ATP synthase [11]): 30 µg/mL; MIC PA 9027 (PA 9027 [12]): >256 µg/mL; MIC BAA 2109 [13]: 256 µg/mL (≈ 728 µM); MIC BAA 2110 [14]: >256 µg/mL; PA ETC IC50 [15]: 29 µg/mL; MIC BAA 2108 [16]: 128 to 256 µg/mL
CSc1nc2ccccc2cc1CNCCc1cnc[nH]1 [Compound 21]						∼7	5	53.6 µM	39 µg/mL		
c1ccc(CSc2nc3ccccc3cc2CNCCC2CCN(C3CCCC3)CC2)cc1 [Compound 16]				8	> 128	> 6	9	2.18 µM	14 [14] μg/mL		MIC BAA 2110 [1, 23]: inactive; MIC [1, 20]: > 128 µg/mL; MIC [2, 21]: 32 µg/mL; MIC [3, 22]: 64 µg/mL
Cc1cc(C)nc(CCNCc2cc3ccccc3nc2SCc2ccccc2)n1 [Compound 20]							17	7.24 µM		67	
CN(C)CCCCNCc1cc2ccccc2nc1SCc1ccccc1 [Compound 8]	32	64	64	16	> 128	> 6	0	2.63 µM	26 [26] μg/mL		
c1ccc(CSc2nc3ccccc3cc2CNCCc2cnc[nH]2)cc1 [Compound 22]	> 128	32	64	16	> 128			~5.34 µM and 5.34 µM	15 µg/mL		EC ETC IC50 ([7]; E. coli DK8 pASH20 inverted membrane vesicles): 14 µg/mL; MIC BAA 2108 [2, 23]: displayed antibacterial activity; MIC BAA 2109 [3, 23]: displayed antibacterial activity
CSc1nc2ccccc2cc1CNCCc1nc(C)cc(C)n1 [Compound 19]						∼1	1.3	198 µM			% PA ETC Inhibition ([9]; concentration not given): 20%
O=C(N[C@H](CO)[C@H](O)c1ccc([N+](=O)[O-])cc1)C(Cl)Cl [chloramphenicol, reference compound]	128	32	128	4							MIC (PA 9027 [5]; [23]): 128 µg/mL
CN(C)CCCCCNCc1cc2ccccc2nc1SCc1ccccc1 [Compound 10]	64	64	128	64	> 128	above 6	14	~5.08 µM and 5.08 µM	57 µg/mL		
CSc1nc2ccccc2cc1CNCCCCN(C)C [Compound 7]							6	224 µM		72	
CCN1CCC(CCNCc2cc3ccccc3nc2SC)CC1 [Compound 13]							20	114 µM		74	
CSc1nc2ccccc2cc1CNCCCN(C)C [Compound 5]							9	149 µM		54	
CSc1nc2ccccc2cc1CNCc1ccc(N(C)C)cc1 [Compound 11]						∼5	4	14.8 µM			% PA ETC Inhibition at 4 µg/mL ([9]; 4 µg/mL): 20%
CSc1nc2ccccc2cc1CNCCC1CCN(C2CCCC2)CC1 [Compound 15]							6	54.7 µM	8.3 µg/mL		
CSc1nc2ccccc2cc1CNCCc1cccn1C [Compound 17]						∼0.5	0	16.1 µM		65	
Cn1cccc1CCNCc1cc2ccccc2nc1SCc1ccccc1 [Compound 18]							5	12.9 µM and 10.3 µM		62	
CSc1nc2ccccc2cc1CNCCCCCN(C)C [Compound 9]							22	59.8 µM		74	
CN(C)CCCNCc1cc2ccccc2nc1SCc1ccccc1 [Compound 6]	32	64	64	16	> 128	above 6	3	16.4 µM	44 µg/mL		
